Like-named read-outs stand apart in the source and are kept apart here. No end group written: not given here.
Columns and labels:
factor VII/VIIa [1] = biological target: T1, factor VII/VIIa (Homo sapiens, UniProt P08709); assay: Inhibition of huTF-initiated coagulation by polypeptide analogs of huTFh; assay type: biochemical; details: for inhibition of huTF-initiated coagulation, dose-response (FIG. 12): non-lipidated polypeptides, various concentrations
T1 construct: from tissue
T1 sequence (P08709 61-466): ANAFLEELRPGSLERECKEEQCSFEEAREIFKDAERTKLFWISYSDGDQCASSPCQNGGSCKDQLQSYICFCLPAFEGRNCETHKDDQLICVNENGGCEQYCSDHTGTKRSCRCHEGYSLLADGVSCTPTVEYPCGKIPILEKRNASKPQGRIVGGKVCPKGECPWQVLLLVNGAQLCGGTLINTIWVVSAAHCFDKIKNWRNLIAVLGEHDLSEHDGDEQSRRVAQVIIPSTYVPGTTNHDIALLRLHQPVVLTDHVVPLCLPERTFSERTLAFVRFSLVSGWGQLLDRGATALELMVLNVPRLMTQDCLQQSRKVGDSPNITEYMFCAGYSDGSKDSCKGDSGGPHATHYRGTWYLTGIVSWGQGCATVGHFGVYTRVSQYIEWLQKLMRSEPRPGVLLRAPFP
Experimental: The ability of the polypeptides of the present invention to inhibit huTF-initiated coagulation were assayed by first incubating the polypeptides in the presence of factor VII/VIIa and calcium ions, and then adding this mixture to factor VII/VIIa-deficient plasma and evaluating clotting times.
Human factor VII/VIIa was isolated as described in Example 3. Ten microliters of a solution of 200 ng of this isolated factor VII/VIIa per ml of HBS/BSA was added to a solution comprising 100 ul of HBS, 20 ul of 25 mM CaCl2, and with 100 ul of TBS/Triton containing synthetic polypeptide. Numerous admixtures were so prepared which contained varying concentrations of the polypeptide and were then maintained at 37 degrees C. for 15 minutes. Relipidated tissue factor prepared as described in Example 4 was diluted in HBS/BSA such that 10 ul would yield a coagulation time of approximately 45 seconds when tested in the coagulation assay described in Example 2. The above maintained admixture was further admixed with this 10 ul dilution of relipidated huTF, with 100 ul of 25 mM CaCl2, and with 100 ul of factor VII/VIIa-deficient plasma (George King Bio-Medical, Inc., Overland Park, Kans.) diluted 1 part plasma to 1.5 parts HBS. The clotting time was then determined and plotted as described in Example 2. A prolongation of clotting time was taken to indicate inhibition of coagulation by the synthetic polypeptide. Percent inhibition was calculated as described in Example 10. Polypeptides producing at least a 30% inhibition of coagulation were considered huTFh binding site polypeptide analogs, i.e., polypeptides p26-49, p146-167 and p161-189 as shown in section I of Table 4.
Lipidated synthetic peptides were prepared in the manner described in Example 4 for relipidation of isolated huTF except that synthetic polypeptide was substituted for isolated huTF. The ratio 52 to 1 of lipid to polypeptide (w/w) was routinely utilized. Lipidated polypeptides producing at least 30% inhibition of coagulation were considered huTFh binding site polypeptide analogs, when present in lipidated form, i.e., those polypeptides shown in section II of Table 4.
The results of this study are shown in FIG. 12 and indicate that p24-35 and p152-169 are capable of inhibiting 45% and 25% respectively, of the huTF-initiated coagulation when utilized at 10 uM concentrations. It should be noted that in this study background inhibitions such as for those peptides indicated by a closed circle in FIG. 12 were lower than the study shown in Table 4. As a result, polypeptides producing at least a 20% inhibition of coagulation at a concentration of 10 uM in this study were considered huTF binding site polypeptide analogs.

factor VII/VIIa [2] = biological target: T1, factor VII/VIIa; assay: Inhibition of factor X activation on J82 cells by huTFh polypeptides; assay type: cell-based; details: for Optical Density: O.D. at 405 nm of factor Xa chromogenic product, 50 ul polypeptide solution at 100 uM, PBS control 0.960, no factor VII 0.005, significant if about 0.500 or less
Experimental: Fifty microliters (ul) of a solution containing a huTF polypeptide analog at 100 uM […] in TBS was added to each well of a 96-well of a 96-well flat bottom polystyrene assay plate. Then to each well was admixed 25 ul of a solution containing factor VII/VIIa isolated as described in Example 3 at a concentration of 1 nm in TBS, further admixed with 25 ul of 20 mM calcium chloride in TBS and the resulting admixture is maintained at room temperature for 30 minutes.
Human bladder cell carcinoma J82 cells were obtained from the American Type Culture Collection (ATCC HTB 1; Rockville, Md.) and cultured as described by Fair et al., J. Biol. Chem., 262:11692-11698 (1987) which methods are incorporated herein by reference.
5×10^4 J82 cells are suspended into 50 ul of TBS and admixed to each well of the polystyrene assay plate after the above maintenance period. Immediately thereafter 25 ul of factor X, isolated as described by Fair et al., J. Biol. Chem., 262:11692-11698 (1987), at a concentration of 100 nM in TBS and 50 ul of Xa chromogenic substrate S-2222 (1 mg/ml in TBS) were admixed, and the resulting admixture was maintained for two minutes at room temperature to form a chromogenic reaction product containing solution.
The amount of chromogenic product formed was quantitated by measuring the amount of optical density (O.D.) at 405 nanometers (nm) using a V-max 96 well spectrophotometer (Molecular Devices, Mountain View, Calif.). Controls with PBS in place of polypeptide or with no factor VII added were also run to establish the maximum and minimum possible O.D. values.

baboon TF = details: Taylor et al., J. Clin. Invest. (1987); cited from earlier work
TF = details: Pitlick, J. Clin. Invest., 55:175 (1975); cited from earlier work
[3] = phospholipidated peptides, 10 μM
[4] = non-phospholipidated peptides, 10 μM, read-out: Inhibition (Percent Inhibition of huTF-initiated coagulation)
[5] = Example 17 study (FIG. 12), non-lipidated, 10 uM, read-out: inhibition of huTF-initiated coagulation
[6] = phospholipidated peptides, 10 μM, read-out: Inhibition (Percent Inhibition of huTF-initiated coagulation)
[7] = non-phospholipidated peptides, 10 μM

Substance	Optical Density (factor VII/VIIa [2])	inhibition at 10 µM (factor VII/VIIa [1]; [4]) [%]	other results
H--TKSGDWKSKCFYTTDTECDLTDEIVKDVKQTY--OH (H-TKSGDWKSKCFYTTDTECDLTDEIVKDVKQTY-OH; cysteine pairing not given here) [p40-71]	0.814 ± 0.053	–	inhibition of huTF-initiated coagulation, dose-response (FIG. 12) (factor VII/VIIa [1]): no substantial inhibition; Inhibition (Percent Inhibition of huTF-initiated coagulation) (factor VII/VIIa [1]; [3]): 65.0%
H-DSPVECMGQEKGEFREIFYIIGA-OH [p204-226]	0.715 ± 0.042	20	–
H-ECDLTDEIVKDVKQTY-OH [p56-71, H--ECDLTDEIVKDVKQTY--OH]	–	25	–
H-EPKPVNQVYTVQISTKSGDWKSKC-OH [p26-49]	0.437 ± 0.020	–	binding to factor VII/VIIa and inhibition of factor X activation (factor VII/VIIa [2]): bind to factor VII/VIIa and inhibit its ability to form a TF:VII/VIIa complex that can activate factor X
H-EWEPKPVNQVYT-OH [p24-35, H--EWEPKPVNQVYT--OH]	0.477 ± 0.017	–	inhibition at 10 µM (factor VII/VIIa [1]; [5]): 45%; binding to factor VII/VIIa and inhibition of factor X activation (factor VII/VIIa [2]): bind to factor VII/VIIa and inhibit its ability to form a TF:VII/VIIa complex that can activate factor X
H-IYTLYYWKSSSSGKKTAK-OH [p152-169, H--IYTLYYWKSSSSGKKTAK--OH]	–	–	inhibition at 10 µM (factor VII/VIIa [1]; [5]): 25%
H-LARVFSYPAGNVESTGSAGEPLYENSPEFTPYLC-OH [p72-104]	0.781 ± 0.047	25	inhibition of huTF-initiated coagulation, dose-response (FIG. 12) (factor VII/VIIa [1]): no substantial inhibition
H-QAVIPSRTVNRKSTDSPVEC-OH [p190-209]	0.625 ± 0.031	20	–
H-RDVFGKDLIYTLYYWK-OH [p144-159, H--RDVFGKDLIYTLYYWK--OH]	0.507 ± 0.053	–	binding to factor VII/VIIa and inhibition of factor X activation (factor VII/VIIa [2]): bind to factor VII/VIIa and inhibit its ability to form a TF:VII/VIIa complex that can activate factor X
H-SGTTNTVAAYNLTWKSTNFKTILEWEPKPV-OH [p1-30]	1.098 ± 0.028	25	inhibition at 10 µM (factor VII/VIIa [1]; [6]): 81%
H-SSSGKKTAKTNTNEFLIDVDKGENYCFSV-OH [p161-189]	–	≥ 30	inhibition of huTF-initiated coagulation, dose-response (FIG. 12) (factor VII/VIIa [1]): no substantial inhibition; inhibition at 10 µM (factor VII/VIIa [1]; [6]): 94%
H-TKVNVTVEDERTLVRRNNTFLSLRDVFGKDLIYTL-OH [p121-155]	0.889 ± 0.067	10	inhibition at 10 µM (factor VII/VIIa [1]; [6]): 55%
H-VFGKDLIYTLYYWKSSSSGKKT-OH [p146-167]	0.004 ± 0.001	–	inhibition at 10 µM (factor VII/VIIa [1]; [6]): 80%; binding to factor VII/VIIa and inhibition of factor X activation (factor VII/VIIa [2]): bind to factor VII/VIIa and inhibit its ability to form a TF:VII/VIIa complex that can activate factor X
H-YENSPEFTPYLETNLGQPTIQSFEQVGTKV-OH [p94-123]	0.818 ± 0.055	20	inhibition of huTF-initiated coagulation, dose-response (FIG. 12) (factor VII/VIIa [1]): no substantial inhibition; inhibition at 10 µM (factor VII/VIIa [1]; [6]): 93.7%
H-YWKSSSSGKKTAK-OH [p157-169, H--YWKSSSSGKKTAK--OH]	0.389 ± 0.035	–	binding to factor VII/VIIa and inhibition of factor X activation (factor VII/VIIa [2]): bind to factor VII/VIIa and inhibit its ability to form a TF:VII/VIIa complex that can activate factor X
activated protein C	–	–	coagulopathic response and lethal effects of LD100 concentrations of E. coli in baboons (baboon TF): prevents the coagulopathic response and lethal effects
concanavalin A	–	–	inhibition of TF activity (TF): inhibits TF activity
p1-18: huTFh polypeptide; designation represents included residues of FIG. 1; sequence not printed (SGTTNTVAAYNLTWKSTN; UniProt P13726 33-50, looked up, fragment)	1.007 ± 0.087	–	–
p11-28: huTFh polypeptide; designation represents included residues of FIG. 1; sequence not printed (NLTWKSTNFKTILEWEPK; UniProt P13726 43-60, looked up, fragment)	0.687 ± 0.071	–	–
p26-40: phospholipidated huTFh polypeptide analog of Table 4; sequence not printed; probably p26-49 (EPKPVNQVYTVQIST; also: phospholipidated (position not given here); UniProt P13726 58-72, looked up, fragment)	–	–	Inhibition (Percent Inhibition of huTF-initiated coagulation) (factor VII/VIIa [1]; [3]): 83.0%
p40-49: huTFh polypeptide analog of Table 4; sequence not printed; probably p41-49 (TKSGDWKSKC; UniProt P13726 72-81, looked up, fragment)	–	–	Inhibition (Percent Inhibition of huTF-initiated coagulation) (factor VII/VIIa [1]; [7]): 25.0%
p41-71: huTFh polypeptide analog of Table 4; sequence not printed; probably p40-71 (KSGDWKSKCFYTTDTECDLTDEIVKDVKQTY; UniProt P13726 73-103, looked up, fragment)	–	–	Inhibition (Percent Inhibition of huTF-initiated coagulation) (factor VII/VIIa [1]; [7]): 25.0%
p50-71: phospholipidated huTFh polypeptide analog of Table 4; sequence not printed; probably p56-71 (FYTTDTECDLTDEIVKDVKQTY; also: phospholipidated (position not given here); UniProt P13726 82-103, looked up, fragment)	–	–	Inhibition (Percent Inhibition of huTF-initiated coagulation) (factor VII/VIIa [1]; phospholipidated peptides, 30 μM): 73.3%
p161-190: huTFh polypeptide of Table 10; sequence not printed; probably p161-189 (SSSGKKTAKTNTNEFLIDVDKGENYCFSVQ; UniProt P13726 193-222, looked up, fragment)	0.600 ± 0.023	–	–
p244-263: huTFh polypeptide of Table 10; sequence not printed; probably p245-263 (KCRKAGVGQSWKENSPLNVS; UniProt P13726 276-295, looked up, fragment)	0.619 ± 0.047	–	–
